Type in all cases: cell-based
The subject of assay [1] is Wnt activity (Sp5-Luc reporter, SW480 colon carcinoma cells). Put plainly: Screening assay for Wnt activity: Sp5-Luc reporter gene assay in SW480 colon carcinoma cells. To be noted: Homo sapiens; for inhibition at 10 µM: SW480, read-out: percent inhibition at 10 μM; for EC50: Sp5-Luc reporter, SW480 cells, overnight incubation. An excerpt: The screening assay for Wnt activity is described as follows. Reporter cell lines can be generated by stably transducing cancer cell lines (e.g., colon cancer) or primary cells (e.g., IEC-6 intestinal cells) with a lentiviral construct that includes a Wnt-responsive promoter driving expression of the firefly luciferase gene.
SW480 colon carcinoma cells were transduced with a lentiviral vector expressing luciferase with a human Sp5 promoter consisting of a sequence of eight TCF/LEF binding sites. SW480 cells stably expressing the Sp5-Luc reporter gene and a hygromycin resistance gene were selected by treatment with 150 μg/mL of hygromycin for 7 days. These stably transduced SW480 cells were expanded in cell culture and used for all further screening activities. […] For Sp5-Luc reporter gene assays, the cells were plated at 4,000 cells/well in 384-well plates with medium containing 1% fetal bovine serum and incubated overnight at 37° C. and 5% CO2. Following incubation, 20 μl of BrightGlo luminescence reagent (Promega) was added to each well of the 384-well assay plates. The plates were placed on an orbital shaker for 2 min and then luminescence was quantified using the Envision (Perkin Elmer) plate reader. Readings were normalized to DMSO only treated cells, and normalized activities were utilized for EC50 calculations using the dose-response log (inhibitor) vs. response-variable slope (four parameters) nonlinear regression feature available in GraphPad Prism 5.0 (or Dotmatics).

The next assay concerns SW480 colon cancer cells. The assay is described as follows: Cell viability assay (CellTiter-Blue) in SW480 colon cancer cells. To be noted: Homo sapiens; for EC50: 96 h, SW480 cell viability, four days; for inhibition at 10 µM: SW480, read-out: percent inhibition at 10 μM. The method, then: Representative compounds were screened using the following assay procedure to assess the effect on cell viability as described below.
Approximately 2×10^3 SW480 colon cancer cells were seeded into each well and allowed to incubate in the presence or absence of compound for four days at 37° C./5% CO2. Eight replicates of DMSO-treated cells served as controls and cells treated with compound were performed in duplicate.
After incubation, 20 μL of CellTiter-Blue (Promega) was added to each well allowed to incubate for approximately 3 hours. This reagent was a buffered solution which contains resazurin, metabolically active cells were able to reduce rezarurin (blue) into resorufin (pink) which was highly fluorescent. This measured fluorescence was used as a readout for cell viability.

For assay [2], the system named is primary human fibroblasts derived from IPF patients (LL29 cells) treated with TGF-β1. The assay is described as follows: Inhibition of the fibrotic process: αSMA staining in TGF-β1 treated LL29 fibroblasts. To be noted: Fibroblast; for EC50: 96 h, % αSMA positive LL29 cells, TGF-β1 20 ng/mL, 4 days; for inhibition at 10 µM: read-out: percent inhibition at 10 μM. As for the experimental part: Representative compounds were screened using primary human fibroblasts (derived from IPF patients) treated with TGF-β1 to determine their ability to inhibit the fibrotic process.
LL29 cells are plated at 1,500 cells/well in 80 μL/well F12 medium supplemented with 1% Fetal Bovine Serum. […] Wells treated with TGF-β1 and containing DMSO were used as controls. […] Following incubation for 4 days, SYTOX green nucleic acid stain (Life Technologies [Thermo Fisher Scientific]) was added to the wells at a final concentration of 1 μM and incubated at room temperature for 30 min.

The subject of another assay is IL-6 (THP-1 cells). The assay is described as follows: IL-6 inhibition in LPS-stimulated THP-1 monocytes (HTRF). The note with it: Homo sapiens; for inhibition at 10 µM: THP-1, read-out: percent inhibition at 10 μM; for EC50: IL-6, THP-1 cells, LPS 500 ng/mL, 22 hours. As for the experimental part: Compound Screening: THP-1 cells were cultured in basal media with 1% FBS for 24 hours before the start of the assay. […] THP-1 cells were plated at 5000 cells/well in the 384-well plates and incubated at 37° C. for 2 h. 500 ng/mL of LPS was added after 2 hours and cells were incubated for another 22 hours at 37° C. Plates were spun in a centrifuge for 1 minute at […] and a mixture of anti-IL6 XL665, and anti-IL6 Cryptate diluted in reconstitution buffer (Cisbio Inc.) was added to each well. Following incubation for 3 hrs at room temperature, Homogeneous Time-Resolved Fluorescence (HTRF) was measured using the Envision (Perkin Elmer) at 665 nm and […]. The ratio of fluorescence at 665 nm to 620 nm was used as a readout for IL6 quantification. All samples were processed in duplicate. Readings were normalized to DMSO treated cells and normalized activities were utilized for EC50 calculations using the dose-response log (inhibitor) vs. response-variable slope (four parameters) nonlinear regression feature available in GraphPad Prism 5.0 (or Dotmatics).
For orientation: TR-FRET usually uses a lanthanide donor and a delayed reading to cut background.

Some results are limits rather than exact numbers.

Usually inhibition stands for the relative decrease from the control value, in per cent. In general, EC50 refers to the midpoint of the concentration-response curve. Read a high EC50 as weaker potency. Regarding `CC(C)CC(=O)Nc1cncc(-c2cc3c(-c4cc5c(-c6cccnc6)nccc5[nH]4)n[nH]c3cn2)c1` [Compound 86, 3-Methyl-N-(5-(3-(4-(pyridin-3-yl)-1H-pyrrolo[3,2-c]pyridin-2-yl)-1H-pyrazolo[3,4-c]pyridin-5-yl)pyridin-3-yl)butanamide], the inhibition at 10 µM in assay [1] came to 29.9%; in the assay with SW480 colon cancer cells, 3.6%; in the assay on IL-6 (THP-1 cells), 0%. For the same compound, the EC50 is over 10000 nM in assay [1], over 10 µM with SW480 colon cancer cells, 1920 nM in assay [2] and over 10000 nM in the assay with IL-6 (THP-1 cells).

In the case of `c1cc(-c2cc3c(-c4cc5c(-c6ccncc6)nccc5[nH]4)n[nH]c3cn2)ccn1` [Compound 130, 5-(Pyridin-4-yl)-3-(4-(pyridin-4-yl)-1H-pyrrolo[3,2-c]pyridin-2-yl)-1H-pyrazolo[3,4-c]pyridine], the EC50 in assay [1] is 418 nM; in the assay with SW480 colon cancer cells, over 10 µM; in assay [2], 96 nM; in the assay with IL-6 (THP-1 cells) it was over 10000 nM. Besides, the results for the inhibition at 10 µM with SW480 colon cancer cells and with IL-6 (THP-1 cells) were 36.6% and 0%, respectively.

Regarding `c1cncc(-c2cc3c(-c4cc5c(-c6ccoc6)nccc5[nH]4)n[nH]c3cn2)c1` [Compound 312, 3-(4-(Furan-3-yl)-1H-pyrrolo[3,2-c]pyridin-2-yl)-5-(pyridin-3-yl)-1H-pyrazolo[3,4-c]pyridine], the EC50 in assay [1] was found to be 1030 nM; in the assay on SW480 colon cancer cells it was 0.844 µM; in assay [2], 294 nM; with IL-6 (THP-1 cells) it was 1010 nM.

Take `c1cc2[nH]c(-c3n[nH]c4cnc(-c5cncc(OC6CCCCC6)c5)cc34)cc2c(N2CCCCC2)n1` [Compound 607, 5-(5-(Cyclohexyloxy)pyridin-3-yl)-3-(4-(piperidin-1-yl)-1H-pyrrolo[3,2-c]pyridin-2-yl)-1H-pyrazolo[3,4-c]pyridine]: the EC50 stood at 1440 nM in assay [1], 1.1 µM in the assay with SW480 colon cancer cells, 1140 nM in assay [2] and 3810 nM with IL-6 (THP-1 cells).

For `O=C(Cc1ccccc1)Nc1cncc(-c2cc3c(-c4cc5c(N6CCCCC6)nccc5[nH]4)n[nH]c3cn2)c1` [Compound 178, 2-Phenyl-N-(5-(3-(4-(piperidin-1-yl)-1H-pyrrolo[3,2-c]pyridin-2-yl)-1H-pyrazolo[3,4-c]pyridin-5-yl)pyridin-3-yl)acetamide], the EC50 was 4230 nM in assay [1], 6.5 µM in the assay on SW480 colon cancer cells, over 10000 nM in assay [2] and 9320 nM in the assay on IL-6 (THP-1 cells). Moreover, the inhibition at 10 µM in assay [2] was determined as 0%.

In the case of `CC(C)CC(=O)Nc1cncc(-c2cc3c(-c4cc5c(N6CCCCC6)nccc5[nH]4)n[nH]c3cn2)c1` [Compound 170, 3-Methyl-N-(5-(3-(4-(piperidin-1-yl)-1H-pyrrolo[3,2-c]pyridin-2-yl)-1H-pyrazolo[3,4-c]pyridin-5-yl)pyridin-3-yl)butanamide], the EC50 amounted to 1250 nM in assay [1], 1.5 µM in the assay with SW480 colon cancer cells, 2360 nM in assay [2] and 1780 nM with IL-6 (THP-1 cells).

Turning to `CC(C)Nc1cncc(-c2cc3c(-c4cc5c(-c6ccc(F)cc6)nccc5[nH]4)n[nH]c3cn2)c1` [Compound 40, 5-(3-(4-(4-Fluorophenyl)-1H-pyrrolo[3,2-c]pyridin-2-yl)-1H-pyrazolo[3,4-c]pyridin-5-yl)-N-isopropylpyridin-3-amine], the concentration for a half-maximal effect (EC50) in assay [1] amounted to 343 nM; in the assay with SW480 colon cancer cells it was 0.773 µM; in assay [2] it was 56 nM; in the assay on IL-6 (THP-1 cells), 380 nM.

In the case of `CC(C)Nc1cncc(-c2cc3c(-c4cc5c(N6CCCCC6)nccc5[nH]4)n[nH]c3cn2)c1` [Compound 180, N-Isopropyl-5-(3-(4-(piperidin-1-yl)-1H-pyrrolo[3,2-c]pyridin-2-yl)-1H-pyrazolo[3,4-c]pyridin-5-yl)pyridin-3-amine], the EC50 in assay [1] was 2450 nM; in the assay on SW480 colon cancer cells, 4.16 µM; in assay [2], 2600 nM; in the assay with IL-6 (THP-1 cells), 3390 nM.

Consider `c1cc2[nH]c(-c3n[nH]c4cnc(-c5cncc(CN6CCCC6)c5)cc34)cc2c(N2CCCCC2)n1` [Compound 182, 3-(4-(Piperidin-1-yl)-1H-pyrrolo[3,2-c]pyridin-2-yl)-5-(5-(pyrrolidin-1-ylmethyl)pyridin-3-yl)-1H-pyrazolo[3,4-c]pyridine], for which the inhibition at 10 µM in assay [1] worked out at 12.7%; in the assay with SW480 colon cancer cells, 13%; in assay [2], 0%; in the assay with IL-6 (THP-1 cells), 0%. Moreover, the EC50 in assay [1] was over 10000 nM; with SW480 colon cancer cells it was over 10 µM; in assay [2], over 10000 nM; with IL-6 (THP-1 cells), over 10000 nM.

`Cn1cc(-c2cc3c(-c4cc5c(-c6cccnc6)nccc5[nH]4)n[nH]c3cn2)cn1` [Compound 556, 5-(1-Methyl-1H-pyrazol-4-yl)-3-(4-(pyridin-3-yl)-1H-pyrrolo[3,2-c]pyridin-2-yl)-1H-pyrazolo[3,4-c]pyridine]: the EC50 in assay [1] was 78 nM; in the assay with SW480 colon cancer cells, over 10 µM; in assay [2] it was 69 nM; with IL-6 (THP-1 cells), 503 nM. The inhibition at 10 µM in the assay with SW480 colon cancer cells was found to be 0%.

Consider `CCCC(=O)Nc1cncc(-c2cc3c(-c4cc5c(-c6ccoc6)nccc5[nH]4)n[nH]c3cn2)c1` [Compound 325, N-(5-(3-(4-(Furan-3-yl)-1H-pyrrolo[3,2-c]pyridin-2-yl)-1H-pyrazolo[3,4-c]pyridin-5-yl)pyridin-3-yl)butyramide], for which the EC50 in assay [1] is 1100 nM; in the assay with SW480 colon cancer cells, over 10 µM; in assay [2], 1740 nM; in the assay on IL-6 (THP-1 cells), 2380 nM. Moreover, the inhibition at 10 µM in the assay on SW480 colon cancer cells amounted to 31.2%.

On to `CC(C)(C)CC(=O)Nc1cncc(-c2cc3c(-c4cc5c(-c6cc(F)cc(CNS(C)(=O)=O)c6)nccc5[nH]4)n[nH]c3cn2)c1` [Compound 492, N-(5-(3-(4-(3-Fluoro-5-(methylsulfonamidomethyl)phenyl)-1H-pyrrolo[3,2-c]pyridin-2-yl)-1H-pyrazolo[3,4-c]pyridin-5-yl)pyridin-3-yl)-3,3-dimethylbutanamide], for which the inhibition at 10 µM in assay [1] turned out to be 17.3%; in the assay with SW480 colon cancer cells it was 8.6%; in assay [2] it was 1.8%; in the assay on IL-6 (THP-1 cells) it was 4.6%. Moreover, the EC50 was over 10000 nM in assay [1], over 10 µM in the assay on SW480 colon cancer cells, over 10000 nM in assay [2] and over 10000 nM in the assay on IL-6 (THP-1 cells).

Consider `O=C(Nc1cncc(-c2cc3c(-c4cc5c(-c6cccc(F)c6)nccc5[nH]4)n[nH]c3cn2)c1)C1CCCCC1` [Compound 23, N-(5-(3-(4-(3-Fluorophenyl)-1H-pyrrolo[3,2-c]pyridin-2-yl)-1H-pyrazolo[3,4-c]pyridin-5-yl)pyridin-3-yl)cyclohexanecarboxamide], for which the 50% effective concentration (EC50) in assay [1] came out at 1230 nM; in the assay with SW480 colon cancer cells it was 1.44 µM; in assay [2], 678 nM; in the assay with IL-6 (THP-1 cells) it was 2030 nM.

`c1cncc(-c2cc3c(-c4cc5c(N6CCCCC6)nccc5[nH]4)n[nH]c3cn2)c1` [Compound 172, 3-(4-(Piperidin-1-yl)-1H-pyrrolo[3,2-c]pyridin-2-yl)-5-(pyridin-3-yl)-1H-pyrazolo[3,4-c]pyridine]: the half-maximal effective concentration (EC50) in assay [1] is 632 nM; with SW480 colon cancer cells it was over 10 µM; in assay [2] it was over 10000 nM; in the assay on IL-6 (THP-1 cells), over 10000 nM. The figures for the inhibition at 10 µM (in the assay on SW480 colon cancer cells; in assay [2]; in the assay with IL-6 (THP-1 cells)) were 10.8%, 0% and 0%, respectively.

The values above are taken from patent publication US10206908B2, “3-(1H-pyrrolo[3,2-C]pyridin-2-YL)-1H-pyrazolo[3,4-C]pyridines and therapeutic uses thereof” (Samumed, LLC, priority 2015, dated 2019).
